Reference: PubChem BioAssay (NCI)
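The concentration for 50% growth inhibition is given as GI50. TGI marks complete inhibition of growth.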

Experiments:
Assay in all cases: NCI-60 cell line screen, 384-well format
[1] = tested on: SW-620 colon
[2] = tested on: CCRF-CEM leukemia
[3] = tested on: UACC-257 melanoma
[4] = tested on: NCI-H460 NSCLC
[5] = tested on: OVCAR-4 ovarian
[6] = tested on: SNB-19 CNS
[7] = tested on: A549 NSCLC
[8] = tested on: HL-60(TB) leukemia
[9] = tested on: MCF7 breast
[10] = tested on: UACC-62 melanoma
[11] = tested on: NCI-H226 lung
[12] = tested on: SK-MEL-5 melanoma
[13] = tested on: MDA-MB-435 melanoma
[14] = tested on: MALME-3M melanoma
[15] = tested on: CAKI-1 renal
[16] = tested on: BT-549 breast
[17] = tested on: UO-31 renal
[18] = tested on: SN12C renal
[19] = tested on: HOP-92 NSCLC
[20] = tested on: SF-295 CNS
[21] = tested on: SK-OV-3 ovarian
[22] = tested on: HS 578T breast
[23] = tested on: LOX IMVI melanoma
[24] = tested on: NCI-H23 lung
[25] = tested on: KM12 colon
[26] = tested on: SK-MEL-2 melanoma
[27] = tested on: NCI-H522 lung
[28] = tested on: PC-3 prostate
[29] = tested on: COLO 205 colon
[30] = tested on: EKVX NSCLC
[31] = tested on: HCC-2998 colon
[32] = tested on: SR leukemia
[33] = tested on: OVCAR-8 ovarian
[34] = tested on: MOLT-4 leukemia
[35] = tested on: HCT-116 colon
[36] = tested on: A498 renal
[37] = tested on: NCI-H322M lung
[38] = tested on: T-47D breast
[39] = tested on: 786-0 renal
[40] = tested on: ACHN renal
[41] = tested on: MDA-MB-468 breast
[42] = tested on: MDA-MB-231 breast
[43] = tested on: M14 melanoma
[44] = tested on: K-562 leukemia
[45] = tested on: RPMI-8226 leukemia
[46] = tested on: HT29 colon
[47] = tested on: HCT-15 colon
[48] = tested on: SF-268 CNS
[49] = tested on: HOP-62 NSCLC
[50] = tested on: DU-145 prostate
[51] = tested on: IGROV1 ovarian
[52] = tested on: SNB-75 CNS
[53] = tested on: TK-10 renal
[54] = tested on: U251 glioblastoma
[55] = tested on: OVCAR-3 ovarian
[56] = tested on: SF-539 CNS
[57] = tested on: NCI/ADR-RES ovarian
[58] = tested on: SK-MEL-28 melanoma
[59] = tested on: OVCAR-5 ovarian
[60] = tested on: RXF 393 renal

Q: `N#Cc1ccnc(N2C(=O)CC[C@H]2C(=O)N(c2cncc(F)c2)[C@H](C(=O)NC2CC(F)(F)C2)c2ccccc2Cl)c1` was tested. Which GI50 [1] did it give?
A: The GI50 was greater than 100 µM.

Q: And the TGI [1]?
A: The TGI was greater than 100 µM.

Q: And the GI50 [2]?
A: Its GI50 is greater than 72.8 µM.

Q: What about the TGI [2] of the same compound?
A: The TGI was greater than 100 µM.

Q: What about the GI50 [3] of the same compound?
A: The GI50 was greater than 100 µM.

Q: What about the TGI [3] of the same compound?
A: The TGI was greater than 100 µM.

Q: And the GI50 [4]?
A: Its GI50 is 89.7 µM.

Q: What about the TGI [4] of the same compound?
A: The TGI was greater than 100 µM.

Q: And the GI50 [5]?
A: Its GI50 is greater than 86.7 µM.

Q: And the TGI [5]?
A: Its TGI is greater than 100 µM.

Q: And the GI50 [6]?
A: Its GI50 is greater than 100 µM.

Q: And the TGI [6]?
A: Its TGI is greater than 100 µM.

Q: What about the GI50 [7] of the same compound?
A: The GI50 was greater than 90.8 µM.

Q: And the TGI [7]?
A: Its TGI is greater than 100 µM.

Q: What about the GI50 [8] of the same compound?
A: Its GI50 is greater than 100 µM.

Q: And the TGI [8]?
A: The TGI was greater than 100 µM.

Q: And the GI50 [9]?
A: Its GI50 is greater than 100 µM.

Q: And the TGI [9]?
A: Its TGI is greater than 100 µM.

Q: What about the GI50 [10] of the same compound?
A: The GI50 was greater than 100 µM.

Q: And the TGI [10]?
A: Its TGI is greater than 100 µM.

Q: And the GI50 [11]?
A: Its GI50 is greater than 84.9 µM.

Q: And the TGI [11]?
A: Its TGI is greater than 100 µM.

Q: What about the GI50 [12] of the same compound?
A: Its GI50 is greater than 100 µM.

Q: What about the TGI [12] of the same compound?
A: Its TGI is greater than 100 µM.

Q: What about the GI50 [13] of the same compound?
A: The GI50 was greater than 100 µM.

Q: What about the TGI [13] of the same compound?
A: The TGI was greater than 100 µM.

Q: What about the GI50 [14] of the same compound?
A: Its GI50 is greater than 100 µM.

Q: What about the TGI [14] of the same compound?
A: Its TGI is greater than 100 µM.

Q: And the GI50 [15]?
A: The GI50 was greater than 55.4 µM.

Q: And the TGI [15]?
A: Its TGI is greater than 82.9 µM.

Q: What about the GI50 [16] of the same compound?
A: Its GI50 is greater than 100 µM.

Q: What about the TGI [16] of the same compound?
A: The TGI was greater than 100 µM.

Q: What about the GI50 [17] of the same compound?
A: Its GI50 is greater than 100 µM.

Q: What about the TGI [17] of the same compound?
A: Its TGI is greater than 100 µM.

Q: And the GI50 [18]?
A: Its GI50 is greater than 100 µM.

Q: And the TGI [18]?
A: The TGI was greater than 100 µM.

Q: And the GI50 [19]?
A: Its GI50 is 34.3 µM.

Q: What about the TGI [19] of the same compound?
A: Its TGI is greater than 100 µM.

Q: What about the GI50 [20] of the same compound?
A: Its GI50 is greater than 100 µM.

Q: And the TGI [20]?
A: The TGI was greater than 100 µM.

Q: And the GI50 [21]?
A: Its GI50 is greater than 100 µM.

Q: What about the TGI [21] of the same compound?
A: The TGI was greater than 100 µM.

Q: And the GI50 [22]?
A: Its GI50 is greater than 87.8 µM.

Q: What about the TGI [22] of the same compound?
A: Its TGI is greater than 100 µM.

Q: And the GI50 [23]?
A: Its GI50 is greater than 100 µM.

Q: What about the TGI [23] of the same compound?
A: The TGI was greater than 100 µM.

Q: And the GI50 [24]?
A: Its GI50 is greater than 89.5 µM.

Q: And the TGI [24]?
A: The TGI was greater than 100 µM.

Q: What about the GI50 [25] of the same compound?
A: Its GI50 is greater than 100 µM.

Q: What about the TGI [25] of the same compound?
A: Its TGI is greater than 100 µM.

Q: What about the GI50 [26] of the same compound?
A: Its GI50 is greater than 100 µM.

Q: What about the TGI [26] of the same compound?
A: The TGI was greater than 100 µM.

Q: What about the GI50 [27] of the same compound?
A: The GI50 was 97.9 µM.

Q: What about the TGI [27] of the same compound?
A: Its TGI is greater than 100 µM.

Q: What about the GI50 [28] of the same compound?
A: Its GI50 is greater than 100 µM.

Q: And the TGI [28]?
A: The TGI was greater than 100 µM.

Q: What about the GI50 [29] of the same compound?
A: The GI50 was greater than 100 µM.

Q: What about the TGI [29] of the same compound?
A: Its TGI is greater than 100 µM.

Q: And the GI50 [30]?
A: The GI50 was greater than 100 µM.

Q: What about the TGI [30] of the same compound?
A: The TGI was greater than 100 µM.

Q: What about the GI50 [31] of the same compound?
A: The GI50 was greater than 100 µM.

Q: And the TGI [31]?
A: Its TGI is greater than 100 µM.

Q: And the GI50 [32]?
A: The GI50 was 31.4 µM.

Q: What about the TGI [32] of the same compound?
A: Its TGI is greater than 95.8 µM.

Q: And the GI50 [33]?
A: Its GI50 is greater than 100 µM.

Q: And the TGI [33]?
A: The TGI was greater than 100 µM.

Q: What about the GI50 [34] of the same compound?
A: The GI50 was 30.3 µM.

Q: What about the TGI [34] of the same compound?
A: The TGI was greater than 100 µM.

Q: And the GI50 [35]?
A: The GI50 was 28.6 µM.

Q: What about the TGI [35] of the same compound?
A: The TGI was greater than 100 µM.

Q: And the GI50 [36]?
A: Its GI50 is greater than 100 µM.

Q: What about the TGI [36] of the same compound?
A: The TGI was greater than 100 µM.

Q: And the GI50 [37]?
A: The GI50 was greater than 100 µM.

Q: What about the TGI [37] of the same compound?
A: The TGI was greater than 100 µM.

Q: What about the GI50 [38] of the same compound?
A: The GI50 was greater than 100 µM.

Q: What about the TGI [38] of the same compound?
A: Its TGI is greater than 100 µM.

Q: What about the GI50 [39] of the same compound?
A: Its GI50 is greater than 100 µM.

Q: What about the TGI [39] of the same compound?
A: The TGI was greater than 100 µM.

Q: What about the GI50 [40] of the same compound?
A: The GI50 was greater than 100 µM.

Q: What about the TGI [40] of the same compound?
A: Its TGI is greater than 100 µM.

Q: And the GI50 [41]?
A: Its GI50 is greater than 100 µM.

Q: What about the TGI [41] of the same compound?
A: Its TGI is greater than 100 µM.

Q: And the GI50 [42]?
A: Its GI50 is greater than 100 µM.

Q: And the TGI [42]?
A: Its TGI is greater than 100 µM.

Q: What about the GI50 [43] of the same compound?
A: Its GI50 is greater than 100 µM.

Q: What about the TGI [43] of the same compound?
A: The TGI was greater than 100 µM.

Q: And the GI50 [44]?
A: The GI50 was 99.2 µM.

Q: What about the TGI [44] of the same compound?
A: Its TGI is greater than 100 µM.

Q: What about the GI50 [45] of the same compound?
A: Its GI50 is greater than 100 µM.

Q: What about the TGI [45] of the same compound?
A: Its TGI is greater than 100 µM.

Q: What about the GI50 [46] of the same compound?
A: Its GI50 is greater than 95.3 µM.

Q: And the TGI [46]?
A: The TGI was greater than 100 µM.

Q: What about the GI50 [47] of the same compound?
A: The GI50 was greater than 100 µM.

Q: And the TGI [47]?
A: Its TGI is greater than 100 µM.

Q: What about the GI50 [48] of the same compound?
A: The GI50 was greater than 100 µM.

Q: What about the TGI [48] of the same compound?
A: Its TGI is greater than 100 µM.

Q: What about the GI50 [49] of the same compound?
A: The GI50 was greater than 100 µM.

Q: What about the TGI [49] of the same compound?
A: Its TGI is greater than 100 µM.

Q: And the GI50 [50]?
A: Its GI50 is greater than 100 µM.

Q: What about the TGI [50] of the same compound?
A: Its TGI is greater than 100 µM.

Q: What about the GI50 [51] of the same compound?
A: The GI50 was greater than 100 µM.

Q: What about the TGI [51] of the same compound?
A: The TGI was greater than 100 µM.

Q: What about the GI50 [52] of the same compound?
A: Its GI50 is greater than 100 µM.

Q: What about the TGI [52] of the same compound?
A: Its TGI is greater than 100 µM.

Q: And the GI50 [53]?
A: The GI50 was greater than 100 µM.

Q: And the TGI [53]?
A: The TGI was greater than 100 µM.

Q: And the GI50 [54]?
A: The GI50 was greater than 100 µM.

Q: And the TGI [54]?
A: Its TGI is greater than 100 µM.

Q: And the GI50 [55]?
A: Its GI50 is greater than 96.1 µM.

Q: And the TGI [55]?
A: The TGI was greater than 100 µM.

Q: And the GI50 [56]?
A: The GI50 was greater than 100 µM.

Q: What about the TGI [56] of the same compound?
A: The TGI was greater than 100 µM.

Q: And the GI50 [57]?
A: The GI50 was greater than 100 µM.

Q: What about the TGI [57] of the same compound?
A: The TGI was greater than 100 µM.

Q: And the GI50 [58]?
A: Its GI50 is greater than 100 µM.

Q: What about the TGI [58] of the same compound?
A: Its TGI is greater than 100 µM.

Q: What about the GI50 [59] of the same compound?
A: The GI50 was greater than 100 µM.

Q: What about the TGI [59] of the same compound?
A: The TGI was greater than 100 µM.

Q: And the GI50 [60]?
A: Its GI50 is greater than 77.2 µM.

Q: And the TGI [60]?
A: Its TGI is greater than 100 µM.
